Test results as given in patent US11203770B2, “Methods for producing caprylic acid and/or caprylate” (Cornell University, priority 2016, dated 2021).

How the values were obtained:
[1] = tested on: reactor microbiome; assay: inhibition of the chain-elongating reactor microbiome in the continuously fed upflow anaerobic filter; assay type: cell-based; settings: for high residual concentration that inhibits microbial activity: bioreactor broth, mildly acidic pH, n-caprylic acid as undissociated acid
Description: Experimental. Continuously fed bioreactor system. An upflow anaerobic filter was used with constant bioreactor broth recycling through an in-line membrane liquid-liquid extraction (i.e. pertraction) system (FIG. 8). The bioreactor was a vertically oriented cylinder, which was made of Plexiglas®, with an inner diameter of 6 cm. The total volume was 0.90 L, but […]1 packing material (Evolution Aqua, Wigan, United Kingdom) was added, resulting in a working volume of 0.70 L. […] A pH probe (Mettler 405-[…], Columbus, Ohio, USA) was mounted at the top of the bioreactor. Automated pH control of the bioreactor broth was maintained with a controller (Eutech Instruments alpha-pH800, Vernon Hills, Ill., USA) and a corresponding acid addition pump ([…] 913, Bradenton, Fla., USA). […] The effluent continuously exited the bioreactor via an overflow line connected to the top of the bioreactor. The exit of the overflow line was submerged within a secondary effluent reservoir. An inverted funnel was used to collect the biogas within the bioreactor and was connected to a flow meter (Ritter MGC-1, Bochum, Germany). In addition, a gas-sample septum and a bubbler were placed in the gas collection system. A sampling port for biomass samples was placed halfway up the vertically oriented bioreactor. Periods for the bioreactor study. This bioreactor was divided into two phases: I) a start-up phase with continuous feeding (with the product extraction system on or off); and II) a high n-caprylate productivity phase (with continuous feeding and the product extraction system on). Each phase was then divided into several distinct operating periods. From period to period, several operating parameters were varied, including the: organic loading rate (OLR); HRT; bioreactor pH; and operation with or without product extraction (Table 1). Each operating period was operated for at least five HRT periods, and average bioreactor loading rates and concentrations were reported. During Period 1 in Phase I (Days 0-15), pre-washed inoculum was added to the upflow anaerobic filter after which a continuous feeding strategy was initiated. […] The bioreactor was re-inoculated on Day 15 of Period 2 in Phase I (Days 15-54) with pre-washed inoculum, and then again on Day 54 of Period 3 of Phase I (Days 54-64) with non-washed inoculum. This last inoculation carried some carboxylates from the inoculation bioreactor. During Period 4 of Phase I (Days 64-80), the product extraction was turned off. […] In addition, we increased the OLR from 1.8 to 3.8 g COD/L-d (Table 2). Day 98 represented the start of Phase II (Period 6; Days 98-128), by switching on the product extraction system. Next, we increased the OLRs in a step-wise fashion during 4 out of the next 5 periods in Phase II. […]

[2] = cited from earlier work
[3] = tested on: methanogens; assay: toxicity to methanogens in small serum bottles; assay type: cell-based; settings: concentrations present in the bioreactor
Source text: Thus, at a pH of 7.0 we would have anticipated a methanogenic anaerobic digester rather than a chain elongating bioreactor. […] This explains why we can chain elongate at the higher pH levels without adding a methanogenic-inhibiting compound such as bromo-ethanesulfonate (BrES). […] This substantiates the claim that we can operate a chain elongating bioreactor sustainably at a pH level of 7.0.

SMILES | residual ethanol concentration at which microbial inhibition was reached ([1]; Period 11, bioreactor broth) [g COD/L] | high residual concentration that inhibits microbial activity [1] [mM] | solubility limit of the undissociated acid [2] [mM] | toxic concentration, times lower than n-caproic acid ([1]; undissociated acids, toxicity to the community) | toxicity of undissociated acid to methanogens [3]
CCO [ethanol] | ~28 | ~300 |  |  | 
CCCCCC(=O)O [n-caproic acid] |  |  | 93 |  | 
CCCCCCCC(=O)O [n-caprylic acid] |  | 0.62 |  | approximately 10 × | toxic
